Assay results published in patent US20210116454A1, “METHODS FOR TREATING A HEMATOLOGICAL CANCER AND THE USE OF COMPANION BIOMARKERS FOR 2-(2,6-DIOXOPIPERIDIN-3-YL)-4-((2-FLUORO-4-((3-MORPHOLINOAZETIDIN-1-YL)METHYL)BENZYL)AMINO)ISOINDOLINE-1,3-DIONE” (CELGENE CORPORATION, priority 2019, published 2021).
Like-named read-outs stand apart in the source and are kept apart here.

Tests used:
Type in all cases: cell-based
DLBCL cell lines = experiment: Panel of twenty three DLBCL cell lines, 5-day viable cells and apoptosis
Experimental: Compound 1 activity was evaluated in a panel of twenty three DLBCL cell lines. The DLBCL panel includes seven cell lines classified as activated B-cell (ABC) subtype, thirteen cell lines classified as the germinal center B-cell (GCB) subtype, and three cell lines classified as primary mediastinal B-cell lymphoma (PMBL). […] Thus, eleven cell lines have a t(8;14)(q24;q32) and/or t(14;18)(q32;q21.3), corresponding to MYC and BCL2 gene rearrangements into an immunoglobulin (IG) heavy chain locus as well as additional rearrangements affecting BCL6 (Table 1). The translocation of MYC, BCL6, or BCL2 to an IG locus usually leads to high levels of mRNA and protein due to the active transcription driven by a constitutively active IG promoter. Therefore, the protein levels of these genes were monitored by Western blots, confirming the overexpression of BCL2, MYC, and/or BCL6 in all the cell lines evaluated (FIG. 1, panel A). Expressions of CRBN protein and known substrates, Ikaros, Aiolos, and ZFP91 were also evaluated (FIG. 1, panels B and C).
The panel of cell lines were treated with increasing doses of compounds for five days, at which time the number of viable cells was measured and the amount of apoptosis was determined by 7-AAD exclusion and Annexin V staining using flow cytometry. […] Overall, the sensitivity to Compound 1 was independent of cell of origin (COO), since ABC, GCB, and PMBL subtypes were sensitive to Compound 1 (Table 2).

Farage = experiment: 5-day viable cell number and apoptosis (7-AAD exclusion/Annexin V flow cytometry)
From the text: (§1) The DLBCL panel includes seven cell lines classified as activated B-cell (ABC) subtype, thirteen cell lines classified as the germinal center B-cell (GCB) subtype, and three cell lines classified as primary mediastinal B-cell lymphoma (PMBL). […] The translocation of MYC, BCL6, or BCL2 to an IG locus usually leads to high levels of mRNA and protein due to the active transcription driven by a constitutively active IG promoter. […] Expressions of CRBN protein and known substrates, Ikaros, Aiolos, and ZFP91 were also evaluated (FIG. 1, panels B and C).
(§2) The panel of cell lines were treated with increasing doses of compounds for five days, at which time the number of viable cells was measured and the amount of apoptosis was determined by 7-AAD exclusion and Annexin V staining using flow cytometry.

SU-DHL-2 = experiment: as above
From the text: as §1, §2

OCI-LY-19 = experiment: as above; settings: OCI-LY-19 cells, 5 days
From the text: as §1, §2

KARPAS-422 = experiment: as above
From the text: as §1, §2

SU-DHL-16 = experiment: as above
From the text: as §1, §2

WSU-DLCL2 = experiment: as above
From the text: as §1, §2

WSU-DLCL2 DoxoR = experiment: Viable cells/apoptosis in doxorubicin-resistant and matching parental lines
Experimental: (§3) The activity of Compound 1 was also evaluated in cell lines with acquired resistance to doxorubicin (Table 4). Doxorubicin-resistant cell lines (DoxoR) were generated by culturing the parental cell lines in vitro with increasing concentrations of doxorubicin for a long period of time (˜9 to 18 months) until they were able to grow in the presence of a relatively high concentration of doxorubicin (1 μM). Matching parental (M-Parent) cells were generated by maintaining the parental cells in culture without treatment for the same amount of time (˜9 to 18 months). The growth-inhibitory effect of doxorubicin on parental cells and the corresponding resistant cells was evaluated by measuring the number of viable cells and extent of apoptosis by 7-AAD exclusion and Annexin V staining using flow cytometry.
(§4) The effects of Compound 1 on the viability of doxorubicin-resistant versus parental cell lines was determined (FIG. 2; Table 5).

U2932 DoxoR = experiment: as above
Experimental: as §3, §4

Oci-Ly10 DoxoR = experiment: as above
Experimental: as §3, §4

Oci-Ly10 M-Parental = experiment: as above; settings: Oci-Ly 10 M-Parental
Experimental: as §3, §4

SU-DHL-4 M-Parental = experiment: as above
Experimental: as §3, §4

WSU-DLCL2 M-Parental = experiment: as above
Experimental: as §3, §4

SU-DHL-4 DoxoR = experiment: as above
Experimental: as §3, §4

U2932 M-Parental = experiment: as above
Experimental: as §3, §4

[1] = Homo sapiens, 120 h, SU-DHL-2 cells, 5 days
[2] = Homo sapiens, 120 h, KARPAS-422 cells, 5 days
[3] = Homo sapiens, 120 h, SU-DHL-16 cells, 5 days
[4] = Homo sapiens, WSUDLCL2, 120 h, WSU-DLCL2 cells, 5 days
[5] = Homo sapiens, WSUDLCL2, 120 h, 5 days, read-out: IC50
[6] = Homo sapiens, 120 h, 5 days, read-out: IC50

`O=C1CC[C@H](N2C(=O)c3cccc(NCc4ccc(CN5CC(N6CCOCC6)C5)cc4F)c3C2=O)C(=O)N1` [Compound 1, (S)-2-(2,6-dioxopiperidin-3-yl)-4-((2-fluoro-4-((3-morpholinoazetidin-1-yl)methyl)benzyl)amino)isoindoline-1,3-dione] was tested, and the IC50 (DLBCL cell lines; 120 h, eighteen of the twenty three lines, five days of treatment) was 1 to 400 nM, the “viable cells remaining (Emax)” value (DLBCL cell lines; ten highly sensitive cell lines) was “less than 6%” and the EC50 (Farage; 120 h, Farage cells, 5 days) was 73.6 nM. The Emax (Farage; 120 h, Farage cells, 5 days) was 54.2%, the IC50 (Farage; 120 h, Farage cells, 5 days, read-out: % Viable Cells IC50) was 3.7 nM and the IC50 (Farage; Farage cells (Table 3), read-out: IC50) was 59000 nM. The “% Viable Cells AUC” value (Farage; Farage cells, 5 days) was 59.29, the “% Viable Cells Emax” value (Farage; Farage cells, 5 days) was 1.676% and the “% Viable Cells Sensitivity” value (Farage; Farage cells, 5 days) was “High (highly sensitive to Compound 1 with less than 6% viable cells remaining (Emax) after treatment)”. For the same compound, the “Apoptosis AUC” value (Farage; Farage cells, 5 days) was 503.6, the “Apoptosis Sensitivity” value (Farage; Farage cells, 5 days) was “High” and the EC50 (SU-DHL-2; [1]) was 7.78 nM. For the same compound, the Emax (SU-DHL-2; [1]) was 75.2%, the IC50 (SU-DHL-2; Homo sapiens, 120 h, SU-DHL-2 cells, 5 days, read-out: % Viable Cells IC50) was 1.3 nM and the IC50 (SU-DHL-2; Homo sapiens, SU-DHL-2 cells (Table 3), read-out: IC50) was 7000 nM. The “% Viable Cells AUC” value (SU-DHL-2; SU-DHL-2 cells, 5 days) was 6.871, the “% Viable Cells Emax” value (SU-DHL-2; SU-DHL-2 cells, 5 days) was 1.264% and the “% Viable Cells Sensitivity” value (SU-DHL-2; SU-DHL-2 cells, 5 days) was “High (highly sensitive to Compound 1 with less than 6% viable cells remaining (Emax) after treatment)”. For the same compound, the “Apoptosis AUC” value (SU-DHL-2; SU-DHL-2 cells, 5 days) was 745, the “Apoptosis Sensitivity” value (SU-DHL-2; SU-DHL-2 cells, 5 days) was “High” and the EC50 (OCI-LY-19; Homo sapiens, OCI-LY19, 120 h) was 80.9 nM. For the same compound, the Emax (OCI-LY-19; Homo sapiens, OCI-LY19, 120 h) was 30.6%, the IC50 (OCI-LY-19; Homo sapiens, OCI-LY19, 120 h, read-out: % Viable Cells IC50) was 30 nM and the “% Viable Cells AUC” value (OCI-LY-19) was 283.3. The “% Viable Cells Emax” value (OCI-LY-19) was 28.11%, the “% Viable Cells Sensitivity” value (OCI-LY-19) was “Intermediate (intermediate sensitivity with 15% to 55% cell viability)” and the “Apoptosis AUC” value (OCI-LY-19) was 293.5. The “Apoptosis Sensitivity” value (OCI-LY-19) was “Intermediate”, the EC50 (KARPAS-422; [2]) was 32.5 nM and the Emax (KARPAS-422; [2]) was 70.5%. For the same compound, the IC50 (KARPAS-422; Homo sapiens, 120 h, KARPAS-422 cells, 5 days, read-out: % Viable Cells IC50) was 5.4 nM, the IC50 (KARPAS-422; Homo sapiens, KARPAS-422 cells (Table 3), read-out: IC50) was 45000 nM and the “% Viable Cells AUC” value (KARPAS-422; KARPAS-422 cells, 5 days) was 45.21. The “% Viable Cells Emax” value (KARPAS-422; KARPAS-422 cells, 5 days) was 1.584%, the “% Viable Cells Sensitivity” value (KARPAS-422; KARPAS-422 cells, 5 days) was “High (highly sensitive to Compound 1 with less than 6% viable cells remaining (Emax) after treatment)” and the “Apoptosis AUC” value (KARPAS-422; KARPAS-422 cells, 5 days) was 682.2. For the same compound, the “Apoptosis Sensitivity” value (KARPAS-422; KARPAS-422 cells, 5 days) was “High”, the EC50 (SU-DHL-16; [3]) was 262 nM and the Emax (SU-DHL-16; [3]) was 18.2%. The IC50 (SU-DHL-16; Homo sapiens, 120 h, SU-DHL-16 cells, 5 days, read-out: % Viable Cells IC50) was 120 nM, the IC50 (SU-DHL-16; Homo sapiens, SU-DHL-16 cells (Table 3), read-out: IC50) was 360000 nM and the “% Viable Cells AUC” value (SU-DHL-16; SU-DHL-16 cells, 5 days) was 359.7. The “% Viable Cells Emax” value (SU-DHL-16; SU-DHL-16 cells, 5 days) was 30.33%, the “% Viable Cells Sensitivity” value (SU-DHL-16; SU-DHL-16 cells, 5 days) was “Intermediate (intermediate sensitivity with 15% to 55% cell viability)” and the “Apoptosis AUC” value (SU-DHL-16; SU-DHL-16 cells, 5 days) was 159.1. For the same compound, the “Apoptosis Sensitivity” value (SU-DHL-16; SU-DHL-16 cells, 5 days) was “Intermediate”, the EC50 (WSU-DLCL2; [4]) was 77 nM and the Emax (WSU-DLCL2; [4]) was 47.8%. For the same compound, the IC50 (WSU-DLCL2; Homo sapiens, WSUDLCL2, 120 h, WSU-DLCL2 cells, 5 days, read-out: % Viable Cells IC50) was 20 nM, the IC50 (WSU-DLCL2; Homo sapiens, WSUDLCL2, WSU-DLCL2 cells (Table 3), read-out: IC50) was 174000 nM and the “% Viable Cells AUC” value (WSU-DLCL2; WSU-DLCL2 cells, 5 days) was 173.8. For the same compound, the “% Viable Cells Emax” value (WSU-DLCL2; WSU-DLCL2 cells, 5 days) was 1.36%, the “% Viable Cells Sensitivity” value (WSU-DLCL2; WSU-DLCL2 cells, 5 days) was “High (highly sensitive to Compound 1 with less than 6% viable cells remaining (Emax) after treatment)” and the “Apoptosis AUC” value (WSU-DLCL2; WSU-DLCL2 cells, 5 days) was 464.5. For the same compound, the “Apoptosis Sensitivity” value (WSU-DLCL2; WSU-DLCL2 cells, 5 days) was “High”, the IC50 (WSU-DLCL2 DoxoR; [5]) was 100 nM and the “Emax (% viable cells remaining)” value (WSU-DLCL2 DoxoR; relative to DMSO) was 9%. For the same compound, the IC50 (U2932 DoxoR; Homo sapiens, 120 h, U2932 DoxoR, 5 days, read-out: IC50) was 1500 nM, the “Emax (% viable cells remaining)” value (U2932 DoxoR; U2932 DoxoR, relative to DMSO) was 31% and the “lower sensitivity in doxorubicin-resistant cells” value (U2932 DoxoR; U2932 doxorubicin-resistant vs M-parental) was 20 fold. The IC50 (Oci-Ly10 DoxoR; Homo sapiens, OCI-Ly10, 120 h, Oci-Ly 10 DoxoR, 5 days, read-out: IC50) was 300 nM, the “greater sensitivity of resistant cells compared to parental cells” value (Oci-Ly10 DoxoR; OCI-Ly10 doxorubicin-resistant vs parental) was “approximately 20 fold” and the “Emax (% viable cells remaining)” value (Oci-Ly10 DoxoR; Oci-Ly 10 DoxoR, relative to DMSO) was 22%. For the same compound, the IC50 (Oci-Ly10 M-Parental; Homo sapiens, OCI-Ly10, 120 h, 5 days, read-out: IC50) was 6000 nM, the “Emax (% viable cells remaining)” value (Oci-Ly10 M-Parental; relative to DMSO) was 47% and the IC50 (SU-DHL-4 M-Parental; [6]) was > 10000 nM. For the same compound, the “Emax (% viable cells remaining)” value (SU-DHL-4 M-Parental; relative to DMSO) was 74%, the IC50 (WSU-DLCL2 M-Parental; [5]) was 10 nM and the “Emax (% viable cells remaining)” value (WSU-DLCL2 M-Parental; relative to DMSO) was 23%. The IC50 (SU-DHL-4 DoxoR; Homo sapiens, 120 h, SU-DHL-4 DoxoR, 5 days, read-out: IC50) was 100 nM, the “Emax (% viable cells remaining)” value (SU-DHL-4 DoxoR; SU-DHL-4 DoxoR, relative to DMSO) was 8% and the “greater sensitivity in the doxorubicin-resistant cell line” value (SU-DHL-4 DoxoR; SU-DHL-4 doxorubicin-resistant vs parental) was > 100 fold. For the same compound, the IC50 (U2932 M-Parental; [6]) was 60 nM and the “Emax (% viable cells remaining)” value (U2932 M-Parental; relative to DMSO) was 19%.
